A value given as a limit tells only on which side of the number the result lay.

T1 sequence (P43250 whole entry): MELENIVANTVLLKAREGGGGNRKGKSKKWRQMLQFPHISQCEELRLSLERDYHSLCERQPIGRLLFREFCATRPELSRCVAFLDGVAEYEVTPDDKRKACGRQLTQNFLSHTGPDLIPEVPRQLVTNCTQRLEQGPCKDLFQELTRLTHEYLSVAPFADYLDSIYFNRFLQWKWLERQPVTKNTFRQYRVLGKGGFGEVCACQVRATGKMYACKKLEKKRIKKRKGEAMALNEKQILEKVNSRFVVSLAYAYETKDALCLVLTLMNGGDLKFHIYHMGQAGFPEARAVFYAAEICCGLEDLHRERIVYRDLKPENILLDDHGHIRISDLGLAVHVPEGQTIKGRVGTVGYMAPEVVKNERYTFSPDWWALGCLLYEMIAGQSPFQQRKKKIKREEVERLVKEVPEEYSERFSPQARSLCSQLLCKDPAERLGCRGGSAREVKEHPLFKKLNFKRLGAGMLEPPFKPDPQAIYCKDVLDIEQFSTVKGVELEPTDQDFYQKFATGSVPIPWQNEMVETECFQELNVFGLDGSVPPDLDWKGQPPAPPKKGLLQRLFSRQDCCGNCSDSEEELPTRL

One experiment addresses T1, GRK6, recombinant full-length GST-tagged human protein (Homo sapiens, UniProt P43250).
T1 construct: Enzyme: 20 nM GRK6, recombinant full-length GST-tagged human protein; GST
As to the kind of experiment: GRK6 assay, IC50 determination (8-point concentration-response). The experiment is classed as biochemical. The following applies: Series 1 (Table 11); 20 nM GRK6, ATP 12 μM (Km), Peptide 216 1 μM, incubation 7 h. As to the method: The following assay conditions were used.
Buffer: 50 mM TRIS-HCl, pH 7.5, 5 mM MgCl2, 2 mM DTT, 0.01% Triton X-100, 10 μM Na3VO4, 10 μM b-GP, 1% DMSO
Enzyme: 20 nM GRK6, recombinant full-length GST-tagged human protein
Peptide substrate (Peptide 216): 1 μM
One hundred two compounds (1-1-1-102) were further characterized by determining IC50 values in a GRK6 assay. This screen has been previously described in WO 2013/063458, which is incorporated by reference in its entirety herein. Briefly, the following activities were performed: 8-point concentration-response determinations in singlicate wells (top concentration=60 μM, 3-fold dilution steps); Repeat tests for QC failed or inconclusive compounds; and Repeat tests (titrate down) for compounds with >50% inhibition at all tested concentrations.
Twelve compounds (2-1-2-12) were further characterized by determining the IC50 values in a GRK6 assay. This screen has been previously described in WO 2013/063458, which is incorporated by reference in its entirety herein. Specific activities were performed as described above (Example 18).
Thirty-six compounds (3-1-3-36) were further characterized by determining the IC50 values in a GRK6 assay. This screen has been previously described in WO 2013/063458, which is incorporated by reference in its entirety herein. Specific activities were performed as described above (Example 18).
Fifty-four compounds (4-1-4-54) were further characterized by determining the IC50 values in a GRK6 assay. This screen has been previously described in WO 2013/063458, which is incorporated by reference in its entirety herein. Specific activities were performed as described above (Example 18).
Take `O=C(O)CSc1nnc(-c2ccc(-c3cc(Cl)cc(Cl)c3)o2)[nH]1` [Compound 1-10]: the concentration for half-maximal inhibition (IC50) (as a rule, the point on the concentration scale where inhibition reaches its midpoint) turned out to be 186 nM.
In the case of `O=C(O)CSc1nnc(-c2ccc(-c3cccc(OCc4ccc(Cl)c(C(F)(F)F)c4)c3)o2)[nH]1` [Compound 1-58], the IC50 is 616 nM.
The same measure, in the same setting: with `COc1ccc(/C=C/c2ccc(-c3nnc(SCC(=O)O)[nH]3)o2)cc1` [Compound 1-53] the figure was 514 nM.
For the molecule `O=C(O)CSc1nnc(-c2ccc(-c3ccc(Oc4ccccc4)cc3)o2)[nH]1` [Compound 1-25], the IC50 came out at 284 nM.
For `O=C(O)CSc1nnc(-c2ccc(-c3ccc(C(F)(F)F)nc3)o2)[nH]1` [Compound 1-90], the IC50 was found to be 2040 nM.
As to `N#Cc1cccc(COc2cccc(-c3ccc(-c4nnc(SCC(=O)O)[nH]4)o3)c2)c1` [Compound 1-6], the IC50 was 162 nM.
Still for that read-out and setting: then `Nc1cc(-c2ccc(-c3nnc(SCC(=O)O)[nH]3)o2)ccn1` [Compound 1-92, 2-((5-(5-(2-aminopyridin-4-yl)furan-2-yl)-4H-1,2,4-triazol-3-yl)thio)acetic acid], with 2170 nM; and `COC(=O)CSc1nnc(-c2ccc(C#Cc3ccc4ccccc4c3)o2)[nH]1` [Compound 1-102], with 8250 nM; and `COc1ccc2cc(-c3oc(-c4nnc(SCC(=O)O)[nH]4)cc3Br)ccc2c1` [Compound 1-49], with 458 nM.
As to `Nc1cccc(-c2ccc(-c3nnc(SCC(=O)O)[nH]3)o2)c1` [Compound 1-83], the IC50 worked out at 1410 nM.
The same measure, in the same setting: with `O=C(O)CSc1nnc(-c2ccc(-c3cccc(OCc4ccc5ccccc5c4)c3)o2)[nH]1` [Compound 1-48] the figure was 458 nM; with `O=C(O)CSc1nnc(-c2ccc(-c3ccc4cc[nH]c4c3)o2)[nH]1` [Compound 1-46], 421 nM.
The same measure, in the same setting: then `COc1ccc2cc(-c3oc(-c4nnc(SCC(=O)O)[nH]4)cc3C#CCO)ccc2c1` [Compound 1-31], with 324 nM.
With `O=C(O)CSc1nnc(-c2ccc(-c3cccc([N+](=O)[O-])c3)o2)[nH]1` [Compound 1-59], the IC50 was found to be 617 nM.
On to `COc1ccc2cc(-c3ccc(-c4nnc(SCC(=O)O)[nH]4)o3)ccc2c1` [Compound 1-16], for which the IC50 was 241 nM.
On the same count and under the same terms, then `CC(C)Oc1cccc(-c2ccc(-c3nnc(SCC(=O)O)[nH]3)o2)c1` [Compound 1-67], with 737 nM; and `O=C(O)CSc1nnc(-c2ccc(-c3ccc4c(c3)CCC(=O)N4)o2)[nH]1` [Compound 1-72], with 987 nM; and `CCOC(=O)c1ccc(-c2ccc(-c3nnc(SCC(=O)O)[nH]3)o2)cc1` [Compound 1-74], with 1020 nM.
As to `COc1cc(-c2ccc(-c3nnc(SCC(=O)O)[nH]3)o2)ccc1OCc1ccccc1` [Compound 1-43], the IC50 came out at 395 nM.
On to `N#Cc1c[nH]c2cc(-c3ccc(-c4nnc(SCC(=O)O)[nH]4)o3)ccc12` [Compound 1-33], for which the IC50 is 332 nM.
Still for that read-out and setting: then `O=C(O)CSc1nnc(-c2ccc(-c3ccc(Cl)nc3)o2)[nH]1` [Compound 1-91], with 2090 nM; and `O=C(O)CSc1nnc(-c2ccc(-c3ccccc3Cl)o2)[nH]1` [Compound 1-85], with 1440 nM; and `O=C(O)CSc1nnc(-c2ccc(-c3ccc(Cl)c(Cl)c3)o2)[nH]1` [Compound 1-9], with 175 nM.
The same measure, in the same setting: then `O=C(O)CSc1nnc(-c2ccc(-c3cccc(Cl)c3)o2)[nH]1` [Compound 1-36], with 359 nM.
On the same count and under the same terms, then `Cn1ncc2ccc(-c3ccc(-c4nnc(SCC(=O)O)[nH]4)o3)cc21` [Compound 1-63, 2-((5-(5-(1-methyl-1H-indazol-6-yl)furan-2-yl)-4H-1,2,4-triazol-3-yl)thio)acetic acid], with 699 nM; and `Cc1nn(C)cc1-c1ccc(-c2nnc(SCC(=O)O)[nH]2)o1` [Compound 1-96], with 3310 nM; and `Cn1ccc2ccc(-c3ccc(-c4nnc(SCC(=O)O)[nH]4)o3)cc21` [Compound 1-14], with 216 nM.
In the case of `O=C(O)CSc1nnc(-c2ccc(-c3cc(O)cc(F)c3)o2)[nH]1` [Compound 1-39], the IC50 is 364 nM.
On the same count and under the same terms, then `O=C(O)CSc1nnc(-c2ccc(-c3cccc(C(F)(F)F)c3)o2)[nH]1` [Compound 1-56], with 595 nM.
The same measure, in the same setting: then `O=C(O)CSc1nnc(-c2ccc(-c3ccc4[nH]ccc4c3)o2)[nH]1` [Compound 1-35], with 347 nM; and `O=C(O)CSc1nnc(-c2ccc(-c3cccc(OCc4ccc(C(F)(F)F)cc4)c3)o2)[nH]1` [Compound 1-60], with 630 nM.

The experiment is the same for the next values; noted with them: Series 2 (Table 12); conditions as Example 18.
Regarding `COc1cc(Cl)cc(-c2ccc(-c3cc(SCC(=O)O)n[nH]3)s2)c1` [Compound 2-4], the IC50 was 608 nM.
Take `COc1cc(Cl)cc(-c2ccc(-c3cc(SCC(=O)O)n[nH]3)o2)c1` [Compound 2-1]: the half-maximal inhibitory concentration (IC50) was determined as 309 nM.
Consider `O=C(O)CSc1cc(-c2ccc(-c3ccc(Cl)c(Cl)c3)o2)[nH]n1` [Compound 2-3], for which the IC50 was determined as 475 nM.
Turning to `O=C(O)CSc1cc(-c2ccc(-c3ccc(Cl)c(Cl)c3)s2)[nH]n1` [Compound 2-2], the IC50 came out at 402 nM.
Consider `O=C(O)CSc1cc(-c2ccc(-c3ccc4ccccc4c3)s2)[nH]n1` [Compound 2-7], for which the IC50 came to 788 nM.
Still for that read-out and setting: then `Cn1c2ccccc2c2ccc(-c3ccc(-c4cc(SCC(=O)O)n[nH]4)o3)cc21` [Compound 2-8], with 1250 nM.

Staying with this experiment, now noted: Series 3 (Table 13); conditions as Example 18.
In the case of `FC(F)(F)c1cccc(-c2ccc(-c3nnc(SCc4nnn[nH]4)[nH]3)o2)c1` [Compound 3-16], the half-inhibitory concentration (IC50) is 2550 nM.
Still for that read-out and setting: with `Clc1cc(Cl)cc(-c2ccc(-c3nnc(SCc4nnn[nH]4)[nH]3)o2)c1` [Compound 3-2] the figure was 545 nM; with `c1ccc(-c2ccc(-c3nnc(SCc4nnn[nH]4)[nH]3)o2)cc1` [Compound 3-28], 6210 nM; with `c1cncc(-c2ccc(-c3nnc(SCc4nnn[nH]4)[nH]3)o2)c1` [Compound 3-32], 8630 nM.
`Fc1cc(-c2ccc(-c3nnc(SCc4nnn[nH]4)[nH]3)o2)cc(F)c1F` [Compound 3-24]: the IC50 came to 3830 nM.
As for `c1cc2ccc(-c3ccc(-c4nnc(SCc5nnn[nH]5)[nH]4)o3)cc2[nH]1` [Compound 3-12], the IC50 is 1580 nM.
The same measure, in the same setting: then `c1cc2cc(-c3ccc(-c4nnc(SCc5nnn[nH]5)[nH]4)o3)ccc2[nH]1` [Compound 3-8], with 1270 nM; and `c1ccc2cc(-c3ccc(-c4nnc(SCc5nnn[nH]5)[nH]4)o3)ccc2c1` [Compound 3-1], with 442 nM; and `COc1cc(F)cc(-c2ccc(-c3nnc(SCc4nnn[nH]4)[nH]3)o2)c1` [Compound 3-17], with 2860 nM.
Same read-out and setting: with `Fc1cccc(-c2ccc(-c3nnc(SCc4nnn[nH]4)[nH]3)o2)c1` [Compound 3-27] the figure was 5630 nM; with `FC(F)(F)c1cc(-c2ccc(-c3nnc(SCc4nnn[nH]4)[nH]3)o2)ccc1Cl` [Compound 3-19], 3570 nM.
`CNS(=O)(=O)c1cccc(-c2ccc(-c3nnc(SCc4nnn[nH]4)[nH]3)o2)c1` [Compound 3-30]: the IC50 worked out at 7160 nM.

The same experiment, now with this note: Series 4 (Table 14); conditions as Example 18.
In the case of `O=C(O)CSc1nnc(-c2c[nH]c3ccccc23)[nH]1` [Compound 4-49], the IC50 was more than 100000 nM.
On the same count and under the same terms, with `O=C(O)CSc1nnc(-c2c[nH]nc2-c2ccccc2)[nH]1` [Compound 4-15] the figure was 6290 nM; with `O=C(O)CSc1nnc(-c2ccc(-c3ccccc3)s2)[nH]1` [Compound 4-5], 1270 nM; with `O=C(O)CSc1nnc(-c2cnc3ccccc3c2)[nH]1` [Compound 4-4], 1120 nM.
In the case of `COc1cncc(-c2nnc(SCC(=O)O)[nH]2)c1` [Compound 4-24], the IC50 was 12900 nM.
Consider `O=C(O)CSc1nnc(-c2ccc(-c3ccc4ccccc4c3)s2)[nH]1` [Compound 4-10], for which the half-maximal inhibitory concentration (IC50) was found to be 2980 nM.
Same read-out and setting: then `O=C(O)CSc1nnc(-c2ccc(-c3cc(Cl)cc(Cl)c3)s2)[nH]1` [Compound 4-1], with 595 nM; and `COc1cccc(-c2nnc(SCC(=O)O)[nH]2)n1` [Compound 4-32], with 32500 nM; and `CN(C)c1ncc(-c2nnc(SCC(=O)O)[nH]2)cn1` [Compound 4-17], with 7100 nM.
On the same count and under the same terms, then `O=C(O)CSc1nnc(-c2csc3ccccc23)[nH]1` [Compound 4-7], with 2560 nM.
The same measure, in the same setting: then `COc1ccc2c(-c3nnc(SCC(=O)O)[nH]3)c[nH]c2c1` [Compound 4-27], with 20700 nM; and `CCc1n[nH]cc1-c1nnc(SCC(=O)O)[nH]1` [Compound 4-19], with 8960 nM; and `O=C(O)CSc1nnc(-c2cnc(-c3ccccc3)s2)[nH]1` [Compound 4-11], with 3640 nM.
Turning to `O=C(O)CSc1nnc(-c2cnc3cc(OCc4ccccc4)ccc3c2)[nH]1` [Compound 4-2], the IC50 worked out at 780 nM.
For `O=C(O)CSc1nnc(-c2ccc(F)cn2)[nH]1` [Compound 4-35], the concentration for half-maximal inhibition (IC50) was determined as 78700 nM.
Still for that read-out and setting: with `Nc1ncc(-c2nnc(SCC(=O)O)[nH]2)s1` [Compound 4-13] the figure was 4640 nM.

Values taken from patent publication US9902739B2, “Small molecule inhibitors of G protein coupled receptor 6 kinases polypeptides” (Mayo Foundation for Medical Education and Research, priority 2014, dated 2018).
